In patent publication US20260285847A1, “SYMMETRIC AMINOINDOLE-LINKED TRIAZINE FOR A DUAL EFFECT ON ALPHA-SYNUCLEIN AND TAU ISOFORM 2N4R FIBRILLIZATION” (Purdue Research Foundation, priority 2023, published 2026):
“Also recorded” adds a separate entry of the source.

Legend:
tau isoform 2N4R [1] = target: T1, tau isoform 2N4R (Homo sapiens, UniProt P10636); assay: ThT fluorescence assay of tau isoform 2N4R fibril formation; assay type: biochemical; conditions: compound 100 μM, tau 2N4R 6 μM
T1 construct: made in house; host or cells: E. coli BL21(DE3)
T1 sequence (P10636 1-441 isoform P10636-8): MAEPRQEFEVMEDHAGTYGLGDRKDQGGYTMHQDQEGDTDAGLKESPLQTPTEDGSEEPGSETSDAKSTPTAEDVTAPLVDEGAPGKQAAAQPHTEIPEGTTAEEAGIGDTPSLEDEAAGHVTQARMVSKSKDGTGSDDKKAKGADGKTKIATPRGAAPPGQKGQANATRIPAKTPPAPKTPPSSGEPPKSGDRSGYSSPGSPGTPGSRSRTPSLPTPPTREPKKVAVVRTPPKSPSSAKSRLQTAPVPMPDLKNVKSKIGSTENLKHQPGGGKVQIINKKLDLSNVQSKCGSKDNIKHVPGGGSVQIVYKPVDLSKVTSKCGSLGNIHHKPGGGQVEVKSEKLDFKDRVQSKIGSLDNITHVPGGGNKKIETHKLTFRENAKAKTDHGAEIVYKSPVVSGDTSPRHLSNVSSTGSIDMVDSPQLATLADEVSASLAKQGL
Procedure: (§1) Chemical and peptide source. DMSO and thioflavin-T (ThT) were purchased from Alfa Aesar (Ward Hill, MA). Procuration of recombinant α-syn was from rPeptide (WatKinsville, GA). The recombinant p-tau isoform 1N4R was prepared as published previously.^31, 36 Concerning the preparation of tau 2N4R, bacterial expression plasmid consisting of the vector pRK172 carrying a cDNA encoding the human Tau 2N4R isoform was a kind gift of Dr. David Eliezer (Weill Cornell Medicine). For protein expression, E. coli BL21(DE3) cells were transformed with the plasmid and grown in LB media supplemented with ampicillin (100 μg/mL). Protein over-expression was induced by the addition of 1 mM IPTG for 4 h at 37° C., and cells were pelleted by centrifugation at 6,000 g for 15 min at 4° C. The cells were resuspended in lysis buffer (20 mM MES, 400 mM NaCl, 0.2 mM MgCl2, 1 mM EGTA, protease inhibitor cocktail (P8340, Sigma Aldrich), 0.25 mg/mL lysozyme, and 1 μg/mL DNase I, pH 6.8) and lysed by a French press cell disruptor at 4° C., and the lysate was boiled for 20 min. Denatured proteins were pelleted by centrifugation at 30,000 g for 30 min at 4° C., and the supernatant was dialyzed overnight against cation exchange buffer (20 mM MES, 50 mM NaCl, 1 mM MgCl2, 1 mM EGTA, 2 mM DTT, 0.1 mM PMSF, pH 6.8). The dialysate was loaded onto a HiPrep SP HP column, and proteins were eluted with a linear gradient ranging from 50 mM to 1 M NaCl. Fractions containing tau isoform 2N4R were pooled, and the resulting protein solution was dialyzed against PBS (pH 7.4) and stored at −80° C.

α-syn = target: T2, α-syn (Homo sapiens, UniProt P37840); assay: Transmission electron microscopy (TEM) of α-syn fibrils; assay type: biochemical; conditions: protein 60 μM, compound 600 μM (1:10), 24 hours at 37° C.
T2 construct: purchased rPeptide
Procedure: (§2) To confirm the general anti-fibrillar effect of compound 10, transmission electron microscopy (TEM) was used as an orthogonal assay. After incubating recombinant proteins (at 60 μM) with 600 μM compound 10 for 24 hours at 37° C., TEM was utilized to detect fibril formation.^32 A volume of 10 μL was applied on a 400-mesh Formvar-carbon-coated copper grid (Electron Microscopy Sciences, Hatfield, PA). The grids were incubated for 1 minute and washed three times with distilled water. They were carefully air-dried and incubated for 1 minute in a fresh solution of 1% uranyl acetate. Samples were air-dried and observed using a transmission microscope. Visualization of the grids was performed with transmission electron microscopy (JEOL 1400 Flash, Japan). Acquisition of pictures was performed with the following settings: accelerating voltage of 100 kV and magnification of 40k.

[2] = α-syn inclusion formation in dox-inducible neuroblastoma cells; assay type: cell-based; conditions: human, m17d neuroblastoma cells; read-out: concentration from which a small level of toxicity is seen (cell confluence)
Procedure: (§3) The dox-inducible neuroblastoma cell line M17D-TR/αS3K::YFP was used to evaluate the effect of compounds in preventing the formation of inclusion following induction with Dox. Dox-inducible neuroblastoma cells M17D-TR/αS-3K::YFP have been used previously. 96-well plates were used with cellular density of 30,000 cells per well. Compounds were added after 24 h and aS-3K::YFP transgene expression was induced […]. Induction was done by adding 1 μg per mL (final concentration) dox to culture media. Cells were incubated in the Incucyte Zoom 2000 platform (Essen Biosciences) and images (green, bright field) were taken continuously. Endpoint analysis of inclusion formation or growth was performed 48 h after induction (96 h after plating). The Incucyte processing definition ‘Inclusions’ was created as follows: Parameters, Fixed Threshold, Threshold (GCU) 50; Edge Split On, Edge Sensitivity 100; Cleanup, Hole Fill (μm^2): 10, Adjust Size (pixels): 0; Filters, Area (μm^2): max 50, Mean Intensity: min 60, Integrated Intensity: min 2000. […] As described previously for the evaluation of protein expression by SDS-PAGE and Western Blotting in the LiCor system, αS-specific monoclonal antibody 4B12 (Thermofisher, Waltham, MA; 1:1000) and a polyclonal antibody to GAPDH (Sigma-Aldrich, St. Louis, MO, G9545; 1:5000) were used.

[3] = test system: M17D-TR/αS3K::YFP neuroblastoma cells; assay: as above; assay type: cell-based
Procedure: as §3

tau isoform 2N4R [4] = target: T1, tau isoform 2N4R; assay: TEM of tau isoform 2N4R fibrils; assay type: biochemical; conditions: protein 60 μM, compound 600 μM (1:10), 24 hours at 37° C.
Procedure: as §1
To confirm the general anti-fibrillar effect of compound 10, transmission electron microscopy (TEM) was used as an orthogonal assay. After incubating recombinant proteins (at 60 μM) with 600 μM compound 10 for 24 hours at 37° C., TEM was utilized to detect fibril formation.^32 A volume of 10 μL was applied on a 400-mesh Formvar-carbon-coated copper grid (Electron Microscopy Sciences, Hatfield, PA). The grids were incubated for 1 minute and washed three times with distilled water. […]

p-tau isoform 1N4R = target: T3, p-tau isoform 1N4R (Homo sapiens, UniProt P10636); assay type: biochemical; conditions: protein 60 μM, compound 600 μM (1:10), 24 hours at 37° C.
T3 construct: made in house
T3 sequence (P10636 1-412 isoform P10636-7): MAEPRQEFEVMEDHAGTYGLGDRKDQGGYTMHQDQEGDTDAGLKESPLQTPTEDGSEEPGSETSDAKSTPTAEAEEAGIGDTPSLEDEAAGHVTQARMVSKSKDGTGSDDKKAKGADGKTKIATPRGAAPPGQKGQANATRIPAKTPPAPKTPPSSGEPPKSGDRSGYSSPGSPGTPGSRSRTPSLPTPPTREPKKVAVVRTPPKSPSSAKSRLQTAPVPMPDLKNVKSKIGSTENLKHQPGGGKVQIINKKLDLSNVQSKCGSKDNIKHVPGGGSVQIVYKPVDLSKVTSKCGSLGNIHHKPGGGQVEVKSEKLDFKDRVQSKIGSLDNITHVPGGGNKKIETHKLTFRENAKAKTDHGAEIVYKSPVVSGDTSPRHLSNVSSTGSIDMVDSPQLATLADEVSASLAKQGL
Procedure: as §2

[5] = Half-life and brain penetration in mice; assay type: in vivo; conditions: CD1 mice, 1 mg/kg
From the text: The concentration ration plasma:brain is near to one which is adequate.

c1cc(Nc2ncnc(Nc3cccc4[nH]ccc34)n2)c2cc[nH]c2c1 [Compound 10, N2,N4-bis(1H-indol-4-yl)-1,3,5-triazine-2,4-diamine]
elongation rate of tau isoform 2N4R fibrillization (tau isoform 2N4R [1]): slower elongation rate | tau isoform 2N4R fibrillization (in words) (tau isoform 2N4R [1]; heparin 1.5 μM): markedly inhibited tau isoform 2N4R fibrillization | α-syn fibril ultrastructure (TEM) (α-syn): a range of shorter fibrils to amorphous protein; also recorded: rare short fibrils | MCC [2]: ≥ 10 µM | minimal effective concentration ([3]; Neuroblastoma cell, read-out: concentration from which α-syn inclusion body formation is reduced): ≥ 2.5 µM | α-syn expression levels (Western blot) ([3]; compound 10 μM): reduced | toxicity (cell confluence, in words) ([3]; compound 40 μM): more intense toxicity | α-syn inclusion formation (punctate YFP signal, in words) ([3]; compound 7: 2.5 to 20 μM, compound 10: 2.5 to 40 μM, readout 96 h after plating, vs 0.1% DMSO): reduced α-syn inclusion formation | tau isoform 2N4R fibril ultrastructure (TEM) (tau isoform 2N4R [4]): needle-shaped short fibrils; also recorded: very short needle shaped fibrils admixed with debris | p-tau isoform 1N4R fibril ultrastructure (TEM) (p-tau isoform 1N4R): less fibrils resulted from this treatment | concentration ratio plasma:brain [5]: near to one | crossing of the blood brain barrier [5]: crossed the blood brain barrier | half-life [5]: short half-life
